{"source": "patent US8367328B2", "about": "“Method for synthesizing DNA” (Takara Bio Inc., priority 1998, dated 2013)", "key": {"Pfu DNA Polymerase II": {"molecular_target": "T1, Pfu DNA Polymerase II (Pyrococcus furiosus, UniProt P81409+P81412)", "T1 construct": "made in house; host or cells: Escherichia coli JM109/pFU1001 (FERM BP-5579)", "T1 sequence (P81409 1-1263)": "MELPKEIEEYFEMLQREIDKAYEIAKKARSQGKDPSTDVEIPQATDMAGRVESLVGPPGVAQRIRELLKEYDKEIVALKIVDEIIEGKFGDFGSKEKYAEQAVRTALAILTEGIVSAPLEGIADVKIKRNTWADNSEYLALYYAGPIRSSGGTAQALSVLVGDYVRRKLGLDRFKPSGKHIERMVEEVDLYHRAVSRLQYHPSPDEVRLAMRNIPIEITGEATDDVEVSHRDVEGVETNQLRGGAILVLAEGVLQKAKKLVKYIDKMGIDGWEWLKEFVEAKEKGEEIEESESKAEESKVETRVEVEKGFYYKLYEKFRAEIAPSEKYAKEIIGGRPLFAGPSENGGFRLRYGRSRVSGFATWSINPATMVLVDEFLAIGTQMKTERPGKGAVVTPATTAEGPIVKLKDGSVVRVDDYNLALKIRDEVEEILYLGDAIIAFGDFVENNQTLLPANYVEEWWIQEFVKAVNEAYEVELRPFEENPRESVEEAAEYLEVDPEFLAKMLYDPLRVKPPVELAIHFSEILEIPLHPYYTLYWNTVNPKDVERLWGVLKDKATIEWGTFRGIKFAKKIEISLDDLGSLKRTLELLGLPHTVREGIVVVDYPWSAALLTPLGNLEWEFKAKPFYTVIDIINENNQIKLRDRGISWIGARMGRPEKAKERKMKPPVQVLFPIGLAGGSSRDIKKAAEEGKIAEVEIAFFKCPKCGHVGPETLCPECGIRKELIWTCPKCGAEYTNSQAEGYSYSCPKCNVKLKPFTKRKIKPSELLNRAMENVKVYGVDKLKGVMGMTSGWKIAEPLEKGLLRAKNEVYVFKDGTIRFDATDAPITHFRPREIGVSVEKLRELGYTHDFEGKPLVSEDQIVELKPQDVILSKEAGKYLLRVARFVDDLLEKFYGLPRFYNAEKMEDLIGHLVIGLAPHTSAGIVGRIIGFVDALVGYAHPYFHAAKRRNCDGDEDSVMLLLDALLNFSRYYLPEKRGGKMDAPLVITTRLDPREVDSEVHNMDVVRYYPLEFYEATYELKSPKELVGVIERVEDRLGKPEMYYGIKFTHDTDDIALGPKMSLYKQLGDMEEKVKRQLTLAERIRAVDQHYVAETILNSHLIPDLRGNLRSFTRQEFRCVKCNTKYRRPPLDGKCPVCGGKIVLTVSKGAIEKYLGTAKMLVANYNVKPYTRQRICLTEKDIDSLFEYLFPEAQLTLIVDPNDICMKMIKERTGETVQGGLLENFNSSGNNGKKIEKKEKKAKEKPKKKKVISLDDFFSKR", "T1 sequence (P81412 1-613)": "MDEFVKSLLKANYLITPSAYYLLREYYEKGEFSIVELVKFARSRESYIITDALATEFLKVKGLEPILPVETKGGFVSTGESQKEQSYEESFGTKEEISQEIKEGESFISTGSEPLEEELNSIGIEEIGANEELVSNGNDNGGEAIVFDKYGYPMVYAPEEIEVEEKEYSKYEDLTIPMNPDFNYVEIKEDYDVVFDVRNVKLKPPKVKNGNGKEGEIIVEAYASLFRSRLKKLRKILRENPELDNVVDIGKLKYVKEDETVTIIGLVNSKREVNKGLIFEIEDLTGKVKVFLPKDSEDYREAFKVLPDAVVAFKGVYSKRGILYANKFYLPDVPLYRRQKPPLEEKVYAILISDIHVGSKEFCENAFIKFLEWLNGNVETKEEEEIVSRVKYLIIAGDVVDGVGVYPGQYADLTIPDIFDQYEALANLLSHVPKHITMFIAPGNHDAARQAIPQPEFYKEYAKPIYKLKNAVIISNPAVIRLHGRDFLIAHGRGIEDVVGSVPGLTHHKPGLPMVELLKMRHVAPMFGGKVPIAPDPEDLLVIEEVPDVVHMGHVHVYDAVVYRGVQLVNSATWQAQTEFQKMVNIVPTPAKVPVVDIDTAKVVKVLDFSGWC", "experiment": "PCR with Pfu DNA Polymerase II in the presence of acidic substances (λDNA template)", "type": "biochemical", "conditions": "0.5 kb fragment; 100 pg λDNA, primers λ1/λ2, 25 cycles 98°C 5 s–66°C 15 s; amount added 10 ng", "procedure": "A reaction mixture comprising λDNA as a template, primers λ1 and λ3 as a primer pair, and Pfu DNA Polymerase II as DNA polymerase was prepared, and PCR was carried out. The composition of the reaction mixture is as follows.\n10 mM Tris-hydrochloric acid (pH 9.2), 75 mM potassium chloride, 6 mM magnesium chloride, 0.4 mM each of dATP, dCTP, dGTP and dTTP, 0.01% BSA, 1.25 U of Pfu DNA Polymerase II, 500 pg of λDNA, and 5 pmol each of primers λ1 and λ3 (a final volume being 25 μl). […]\nUsing the sulfated-fucose-containing Polysaccharide-F obtained in Example 6 described above, dextran sulfate powder (manufactured by Onco), or sodium alginate (100 to 150 centipoises, manufactured by Wako Pure Chemicals), the effects of these acidic substances on the activity of Pfu DNA Polymerase II were examined. A reaction mixture comprising λDNA as a template, primers λ1 and λ2 as a primer pair, and Pfu DNA Polymerase II as DNA polymerase was prepared, and PCR was carried out. The composition of the reaction mixture is as follows.\n(§1) 10 mM Tris-hydrochloric acid, pH 9.2, 75 mM potassium chloride, 6 mM magnesium chloride, 0.4 mM each of dATP, dCTP, dGTP and dTTP, 0.01% BSA, 1.25 U of Pfu DNA Polymerase II, 100 pg of λDNA, and 5 pmol each of primers λ1 and λ2 (a final volume being 25 μl). Further, 10 ng of the sulfated-fucose-containing polysaccharide-F, 10 ng of dextran sulfate powder, or 1 μg of sodium alginate was respectively added to the above reaction mixture.\n(§2) The reaction in 25 cycles was carried out for each of these reaction mixtures, wherein one cycle of reaction comprises a process consisting of 98° C., 5 seconds—66° C., 15 seconds. Thereafter, 5 μl of the resulting reaction mixture was subjected to electrophoresis on 1% agarose gel containing ethidium bromide in an amount of 0.00005%, whereby an amplified fragment was confirmed.\nFurther, studies were conducted on the effects of the sulfated-fucose-containing polysaccharide-F obtained in Example 6 described above, the sulfated-fucose-containing polysaccharide-U obtained in Example 7 described above, or sodium polyglutamate (manufactured by Sigma) as an acidic substance. A reaction mixture for PCR was prepared in the same manner as described above except for changing the amount of template λDNA to 500 pg and the primer pairs to primers λ1 and λ3. Five nanograms of the sulfated-fucose-containing polysaccharide-F, 5 ng, 10 ng, 20 ng or 30 ng each of the sulfated-fucose-containing polysaccharide-U, or 250 ng, 500 ng, 750 ng or 1000 ng each of sodium polyglutamate was respectively added to the above reaction mixture.\nas §2, with “reaction” for “reaction in 25 cycles”, “in 30 cycles,” for “for each of these reaction mixtures,”, “After the termination of the reaction,” for “Thereafter,”\nUsing the sulfated-fucose-containing polysaccharide-F obtained in Example 6 described above, the effects on the activity of Pfu DNA Polymerase II were examined. A reaction mixture comprising λDNA as a template, primers λ1 and λ2 as a primer pair, and Pfu DNA Polymerase II as DNA polymerase was prepared, and PCR was carried out. The composition of the reaction mixture is as follows.\nas §1, with “500” for “100”, “polysaccharide-F” for “polysaccharide-F, 10 ng of dextran sulfate powder, or 1 μg of sodium alginate”\nThe reaction in 30 cycles was carried out for each of these reaction mixtures, wherein one cycle of reaction comprises a process consisting of 98° C., 5 seconds—66° C., 15 seconds. […]"}, "KOD DNA Polymerase": {"molecular_target": "T2, KOD DNA Polymerase (Thermococcus kodakarensis, UniProt P77933, DEL407-766/DEL852-1388)", "T2 construct": "purchased TOYOBO CO., LTD", "T2 sequence (P77933 other isoform, or with tags, fused parts or gaps DEL407-766/DEL852-1388)": "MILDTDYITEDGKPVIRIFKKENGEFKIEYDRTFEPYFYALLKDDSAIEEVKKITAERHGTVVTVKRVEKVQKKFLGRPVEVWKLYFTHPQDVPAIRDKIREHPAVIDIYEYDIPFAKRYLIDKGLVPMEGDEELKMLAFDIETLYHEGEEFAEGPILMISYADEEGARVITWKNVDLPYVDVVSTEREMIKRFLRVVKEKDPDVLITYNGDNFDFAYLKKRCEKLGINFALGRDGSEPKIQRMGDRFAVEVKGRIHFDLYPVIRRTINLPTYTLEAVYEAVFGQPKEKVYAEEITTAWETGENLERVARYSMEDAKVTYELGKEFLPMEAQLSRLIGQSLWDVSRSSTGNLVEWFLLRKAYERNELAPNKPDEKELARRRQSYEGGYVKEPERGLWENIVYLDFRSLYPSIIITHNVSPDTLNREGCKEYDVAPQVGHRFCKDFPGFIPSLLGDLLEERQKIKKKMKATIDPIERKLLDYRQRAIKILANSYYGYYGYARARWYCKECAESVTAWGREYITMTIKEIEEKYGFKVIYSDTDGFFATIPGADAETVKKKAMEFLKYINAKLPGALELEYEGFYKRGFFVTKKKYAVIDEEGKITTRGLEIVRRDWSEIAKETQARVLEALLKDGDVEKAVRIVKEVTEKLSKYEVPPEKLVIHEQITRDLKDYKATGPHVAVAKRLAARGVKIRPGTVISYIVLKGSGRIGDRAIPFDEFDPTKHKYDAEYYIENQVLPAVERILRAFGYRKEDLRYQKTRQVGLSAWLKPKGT", "experiment": "PCR with KOD DNA Polymerase (α-type) in the presence of acidic substances", "type": "biochemical, Pyrococcus sp.", "conditions": "10 kb fragment, 100 pg λDNA, 30 cycles 98°C 5 s–68°C 3 min", "procedure": "(1) Using sodium alginate, sodium hyaluronate (manufactured by Seikagaku Kogyo), or κ carrageenan (manufactured by Sigma), the effects of these acidic substances on α-type DNA polymerase were examined. A reaction mixture comprising λDNA as a template, primers λ1 and λ8 as a primer pair, and KOD DNA Polymerase (manufactured by TOYOBO CO., LTD.) as DNA polymerase was prepared, and PCR was carried out. The composition of the reaction mixture is as follows. Composition of Reaction Mixture: KOD DNA Polymerase Buffer I (manufactured by TOYOBO CO., LTD.) 0.2 mM each of dATP, dCTP, dGTP and dTTP, 0.625 U of KOD DNA Polymerase, 100 pg of λDNA, and 5 pmol each of primers λ1 and λ8 (a final volume being 25 μl). Further, 1 μg or 2.5 μg of sodium alginate, 0.1 μg or 0.5 μg of sodium hyaluronate, or 0.1 μg or 0.25 μg of κ carrageenan was respectively added to the above reaction mixture.\nas §2, with “30” for “25”, “seconds—68°” for “seconds—66°”, “3 minutes.” for “15 seconds.”\n(2) The effects on α-type DNA polymerase were also examined in the same manner as in item (1) above for sodium alginate, κ carrageenan, sodium heparan sulfate (manufactured by Sigma), sodium dermatan sulfate (manufactured by Sigma), potassium polyvinyl sulfate (manufactured by nacalaitesque) or sodium polystyrenesulfonate (two kinds: average molecular weights of 5,400 and 35,000, all manufactured by nacalaitesque). A reaction mixture comprising λDNA as a template, primers λ1 and λ8 as a primer pair, and KOD DNA Polymerase as DNA polymerase was prepared, and PCR was carried out. The composition of the reaction mixture is as follows. Composition of Reaction Mixture: KOD DNA Polymerase Buffer II (manufactured by TOYOBO CO., LTD.) 0.2 mM each of dATP, dCTP, dGTP and dTTP, 1.25 U of KOD DNA Polymerase, 100 pg of λDNA, and 10 pmol each of primers λ1 and λ8 (a final volume being 50 μl). Further, 2.5 μg or 5 μg of sodium alginate, 0.25 μg or 0.5 μg of κ carrageenan, or 125 ng, 250 ng or 375 ng of sodium dermatan sulfate, 500 ng of sodium heparan sulfate, 10 ng of potassium polyvinyl sulfate, 2.5 ng or 5 ng of sodium polystyrenesulfonate (average molecular weight: 5,400), or 5 ng of sodium polystyrenesulfonate (average molecular weight: 35,000) was respectively added to the above reaction mixture."}, "[1]": {"conditions": "Buffer I, 0.625 U KOD, primers λ1/λ8, 25 μl, amount added 0.1 μg"}}, "data": [{"substance": "dextran sulfate [Dextran Sulfate Powder]", "values": [{"measurement": "Amplification Results", "setting": "Pfu DNA Polymerase II", "value": "+ (Amplification being observed)"}]}, {"substance": "sodium dermatan sulfate", "values": [{"measurement": "Amplification Results", "setting": "KOD DNA Polymerase; Buffer II, 1.25 U KOD, primers λ1/λ8, 50 μl, amount added 125 ng", "value": "+ (Amplification being observed)"}, {"measurement": "Amplification Results", "setting": "KOD DNA Polymerase; Buffer II, 1.25 U KOD, primers λ1/λ8, 50 μl, amount added 250 ng", "value": "+ (Amplification being observed)"}, {"measurement": "Amplification Results", "setting": "KOD DNA Polymerase; Buffer II, 1.25 U KOD, primers λ1/λ8, 50 μl, amount added 375 ng", "value": "+ (Amplification being observed)"}]}, {"substance": "sodium heparan sulfate", "values": [{"measurement": "Amplification Results", "setting": "KOD DNA Polymerase; Buffer II, 1.25 U KOD, primers λ1/λ8, 50 μl, amount added 500 ng", "value": "+ (Amplification being observed)"}]}, {"substance": "sodium hyaluronate", "values": [{"measurement": "Amplification Results", "setting": "KOD DNA Polymerase; [1]", "value": "+ (Amplification being observed)"}, {"measurement": "Amplification Results", "setting": "KOD DNA Polymerase; Buffer I, 0.625 U KOD, primers λ1/λ8, 25 μl, amount added 0.5 μg", "value": "+ (Amplification being observed)"}]}, {"substance": "κ carrageenan", "values": [{"measurement": "Amplification Results", "setting": "KOD DNA Polymerase; [1]", "value": "+ (Amplification being observed)"}, {"measurement": "Amplification Results", "setting": "KOD DNA Polymerase; Buffer I, 0.625 U KOD, primers λ1/λ8, 25 μl, amount added 0.25 μg", "value": "+ (Amplification being observed)"}, {"measurement": "Amplification Results", "setting": "KOD DNA Polymerase; Buffer II, 1.25 U KOD, primers λ1/λ8, 50 μl, amount added 0.25 μg", "value": "++ (Intensive amplification being observed)"}, {"measurement": "Amplification Results", "setting": "KOD DNA Polymerase; Buffer II, 1.25 U KOD, primers λ1/λ8, 50 μl, amount added 0.5 μg", "value": "++ (Intensive amplification being observed)"}]}]}
